According to patent US12180461B2 (priority 2018, dated 2024):
In brackets after ≈: the same amount, converted by molar mass. Read-outs that look alike come from different tables or passages of the source.

Experiments:
Legionella = type: cell-based
rats = settings: rat, in vivo, po
[1] = system: Legionella pneumophila isolates; experiment: microbe, parasite or virus in culture; type: cell-based; settings: for MIC50 / MIC90: Legionella pneumophila; for MIC50: read-out: MIC50 (average); for MIC90: read-out: MIC90 (average)
[2] = system: Staphylococcus aureus (ATCC strain 29213); experiment: MIC of quality control strain on Mueller-Hinton agar and on Lasarus medium; type: cell-based
[3] = system: various strains of L. pneumophila; type: cell-based
[4] = 92 Legionella pneumophila isolates on Lasarus solid medium
[5] = ATCC29213, S. aureus ATCC 29213 on Lasarus medium, read-out: MIC100 (on Lasarus medium)
[6] = ATCC29213, S. aureus ATCC 29213 on standard Mueller-Hinton agar, read-out: MIC100 (on M-Hinton)
[7] = average across 92 Legionella pneumophila isolates on Lasarus solid medium

| Molecule | MIC50 (Legionella) [mM] | MIC90 (Legionella) [mM] | LD50 (rats) [mg/kg] | Ranges (MIC100) [1, 4] [µg/mL] | MIC50 [1] [µg/mL] | MIC90 [1] [µg/mL] | also measured |
| --- | --- | --- | --- | --- | --- | --- | --- |
| beryllium sulfate [BeSO4] | 4 | 4 | – | – | – | – | – |
| [Cl-].[Cs+] [CsCl, caesium chloride] | 18 | 37 | 2600 | – | – | – | – |
| C[C@H]1COc2c(N3CCN(C)CC3)c(F)cc3c(=O)c(C(=O)O)cn1c23 [Levofloxacin] | – | – | – | 0.008 to 0.06 | 0.03 (≈ 0.083 µM) | 0.06 (≈ 0.166 µM) | MIC [2, 5]: 0.25 µg/mL; MIC [2, 6]: 0.25 µg/mL; number of strains that could grow (on average) ([3]; BCYE, antibiotic 1 μg/ml): more than 25 strains; number of strains that could grow (on average) ([3]; BCYE, antibiotic 2 μg/ml): more than 15 strains; number of strains tested that could grow (on average) ([3]; Lasarus medium, antibiotic 0/03 μg/ml): ~30 strains |
| [Cl-].[Li+] [LiCl, lithium chloride] | 75 | 75 | 526 | – | – | – | – |
| [Ba+2].[Cl-].[Cl-] [BaCl2, barium chloride] | 4 | 9 | 78 | – | – | – | – |
| O=C(O)c1cn(C2CC2)c2cc(N3CCNCC3)c(F)cc2c1=O [Ciprofloxacin] | – | – | – | 0.008 to 0.06 | 0.03 (≈ 0.0905 µM) | 0.06 (≈ 0.181 µM) | – |
| CO[C@H]1/C=C/O[C@@]2(C)Oc3c(C)c(O)c4c(O)c(c(/C=N/N5CCN(C)CC5)c(O)c4c3C2=O)NC(=O)/C(C)=C\C=C\[C@H](C)[C@H](O)[C@@H](C)[C@@H](O)[C@@H](C)[C@H](OC(C)=O)[C@@H]1C [Rifampacin] | – | – | – | 0.002 to 0.008 | 0.004 (≈ 0.00486 µM) | 0.008 (≈ 0.00972 µM) | MIC [2, 5]: 0.016 µg/mL; MIC [2, 6]: 0.016 µg/mL; number of strains that could grow (on average) ([3]; BCYE, antibiotic 0.06 μg/ml): more than 30 strains; number of strains that could grow (on average) ([3]; BCYE, antibiotic 0.125 μg/ml): more than 15 strains; number of strains tested that could grow (on average) ([3]; Lasarus medium, antibiotic 0.004 μg/ml, quadruplicate): ~35 strains; number of strains that could grow (on average), reduced number ([3]; medium, antibiotic concentration printed as 0.004 μg/ml (second mention)): less than 15 strains |
| [Cl-].[Rb+] [RbCl, rubidium chloride] | 150 | 150 | 4440 | – | – | – | – |
| CC1(C)S[C@@H]2[C@H](NC(=O)[C@H](N)c3ccccc3)C(=O)N2[C@H]1C(=O)O [Ampacilin] | – | – | – | – | – | – | MIC50 (average) [1]: 8 µg/mL (≈ 22.9 µM); MIC90 (average) [1]: 32 µg/mL (≈ 91.6 µM); Ranges (MIC100) [1]: 1 to 32 µg/mL |
| O=C(N[C@H](CO)[C@H](O)c1ccc([N+](=O)[O-])cc1)C(Cl)Cl [Chloramphenicol] | – | – | – | 0.25 to 1 | 0.5 (≈ 1.55 µM) | 0.5 (≈ 1.55 µM) | MIC [2, 5]: 4 µg/mL; MIC [2, 6]: 4 µg/mL |
| [Cl-].[Cl-].[Sr+2] [SrCl, strontium chloride] | 18 | 18 | 2250 | – | – | – | – |
| [Ca+2].[Cl-].[Cl-] [CaCl2, calcium chloride] | 9 | 18 | 1000 | – | – | – | – |
| [Cl-].[Na+] [NaCl, sodium chloride] | 150 | 150 | 3000 | – | – | – | – |
| [Cl-].[Cl-].[Mg+2] [MgCl, magnesium chloride] | 37 | 75 | 2800 | – | – | – | – |
| CN(C)[C@@H]1C(O)=C(C(N)=O)C(=O)[C@@]2(O)C(O)=C3C(=O)c4c(O)cccc4[C@@](C)(O)[C@H]3C[C@@H]12 [Tetracycline] | – | – | – | 32 to 128 | 128 (≈ 288 µM) | 128 (≈ 288 µM) | – |
| CC[C@H]1OC(=O)[C@H](C)[C@@H](O[C@H]2C[C@@](C)(OC)[C@@H](O)[C@H](C)O2)[C@H](C)[C@@H](O[C@@H]2O[C@H](C)C[C@H](N(C)C)[C@H]2O)[C@](C)(O)C[C@@H](C)CN(C)[C@H](C)[C@@H](O)[C@]1(C)O [Azithromycin] | – | – | – | 0.008 to 0.25 | 0.03 (≈ 0.0401 µM) | 0.125 (≈ 0.167 µM) | MIC [2, 5]: 2 µg/mL; MIC [2, 6]: 2 µg/mL; number of strains that could grow (on average) ([3]; BCYE, antibiotic 0.25 μg/ml): more than 20 strains; number of strains that could grow (on average) ([3]; BCYE, antibiotic 0.5 μg/ml): > 5 strains; number of strains tested that could grow (on average) ([3]; Lasarus medium, antibiotic 0.03 μg/ml): ~20 strains; number of strains tested that could grow ([3]; Lasarus medium, antibiotic 0.125 μg/ml): None; number of strains that could grow (on average) ([3]; medium (Lasarus), antibiotic 0.06 μg/ml): less than 15 strains |
| Gentamycin | – | – | – | 0.06 to 1 | – | – | MIC50 (average) [1, 7]: 0.25 µg/mL; MIC90 (average) [1, 7]: 0.5 µg/mL |
